Reference: paper PMC11684006, “A Putative Frizzled 7-Targeting Compound Acts as a Firefly Luciferase Inhibitor” (Journal of Medicinal Chemistry, 2024)

Target: T1, Firefly luciferase (Fluc) (Photinus pyralis, UniProt P08659)
T1 construct: Fluc amplified from the Super8X TOPFlash reporter plasmid, constitutively expressed under a CMV promoter
Assay: Fluc bioluminescence in lysates of compound-treated ΔFZD1–[…] HEK293T cells expressing CMV-driven Fluc (counter assay); Rluc and Nluc unaffected
Format: cell-based

T1 sequence (P08659 whole entry): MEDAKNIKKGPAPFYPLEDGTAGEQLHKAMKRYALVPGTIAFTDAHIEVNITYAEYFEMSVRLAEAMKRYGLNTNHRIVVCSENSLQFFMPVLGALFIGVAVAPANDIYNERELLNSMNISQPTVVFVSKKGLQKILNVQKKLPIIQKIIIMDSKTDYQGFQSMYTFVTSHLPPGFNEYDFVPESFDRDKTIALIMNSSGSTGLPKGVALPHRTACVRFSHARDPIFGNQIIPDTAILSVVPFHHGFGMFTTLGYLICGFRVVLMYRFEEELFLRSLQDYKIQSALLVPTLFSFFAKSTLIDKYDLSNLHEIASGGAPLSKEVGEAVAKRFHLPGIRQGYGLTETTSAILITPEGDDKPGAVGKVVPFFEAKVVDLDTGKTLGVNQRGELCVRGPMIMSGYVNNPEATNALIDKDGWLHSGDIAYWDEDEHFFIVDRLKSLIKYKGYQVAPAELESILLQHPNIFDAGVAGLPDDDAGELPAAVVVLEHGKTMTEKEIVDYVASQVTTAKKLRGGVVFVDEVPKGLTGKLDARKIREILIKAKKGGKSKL

## Cc1ccc(C(=O)Nc2ccc(SCC(=O)Nc3nc(-c4ccccc4)cs3)cc2)c(C)c1 [compound 3, 2,4-Dimethyl-N-(4-((2-oxo-2-((4-phenylthiazol-2-yl)amino)ethyl)thio)phenyl)benzamide]
  IC50: 25 nM
